The text below walks through data of article PMC7320011, “Rationally designed ruthenium complexes for 1- and 2-photon photodynamic therapy” (Nature Communications, 2020).

Each structure is given as a SMILES string. Like-named read-outs stand apart in the source and are kept apart here.

Assay [1] deals with noncancerous retinal pigment epithelium (RPE-1) cells. As to the kind of experiment: (Photo-)cytotoxicity on 2D cell monolayers, RPE-1. The following applies: for PI (480 nm): RPE-1, dark vs 480 nm; for PI (540 nm): RPE-1, dark vs 540 nm; for IC50: 1-3 as chloride salts.
Procedure: A total of 4 × 10^3 cells were seeded on 96-well plates and allowed to adhere overnight. The cells were treated with increasing concentrations of the sample diluted in cell media achieving a total volume of 200 μL. The cells were incubated with the sample for 8 h and, after this time, the medium refreshed. To study the phototoxic effect of the sample, the cells were exposed to 480 nm (spectral half-width: 20 nm, 10 min, 5.2 mW cm^−2, 3.1 J cm^−2) or 540 nm (spectral half-width: 30 nm, 40 min, 4.0 mW cm^−2, 9.5 J cm^−2) light using an Atlas Photonics LUMOS BIO irradiator. To study the dark cytotoxicity of the sample, the cells were not irradiated and the medium exchanged. The cells were grown for an additional 40 h at 37 °C. After this time, the medium was replaced with fresh medium containing resazurin with a final concentration of 0.2 mg mL^−1. The cells were incubated for 4 h and the amount of the fluorescent product resorufin determined (λex = 540 nm, λem = 590 nm) with a SpectraMax M2 Microplate Reader (Molecular Devices). The obtained data was analyzed with the GraphPad Prism software.
The nature of assay [2]: Singlet oxygen quantum yield, indirect evaluation (1O2 scavenger absorbance). In kind it is physicochemical. How it is done:
Indirect evaluation: measurement in acetonitrile: the sample was prepared in an air-saturated acetonitrile solution with an absorption of 0.2 at the irradiation wavelength, N,N-dimethyl-4-nitrosoaniline aniline (RNO, 24 µM) and imidazole (12 mM). Measurement in PBS buffer: the sample was prepared in an air-saturated PBS solution containing the complex with an absorption of 0.2 at the irradiation wavelength, N,N-dimethyl-4-nitrosoaniline aniline (RNO, 20 µM) and histidine (10 mM). The samples were irradiated for various time points with an Atlas Photonics LUMOS BIO irradiator. The absorption of the samples was constantly monitored with a SpectraMax M2 Microplate Reader (Molecular Devices). The difference in absorption (A0 − A) at 420 nm for the measurement in acetonitrile or at 440 nm for the measurement in PBS was determined. The difference in absorption was then plotted against the irradiation times and the slope of the linear regression calculated. The absorption of the sample was corrected with an absorption correction factor. The singlet oxygen quantum yields were calculated using the same formulas as used for the direct evaluation.

Another assay relates to HeLa MCTS. As to the kind of experiment: (Photo-)cytotoxicity on 3D MCTS (ATP concentration). In kind it is cell-based, human. The following applies: for IC50: 1-3 as chloride salts; for PI (2P irradiation): dark vs 800 nm; for PI (1P irradiation): dark vs 500 nm. How it is done: The cytotoxicity of the compounds in 3D MCTS was assessed by measurement of the ATP concentration. MCTS were treated with increasing concentrations of the compound (2% DMSO, v%) by replacing 50% of the media with drug supplemented media and incubation for 12 h. After this time, the MCTS were divided in three identical groups. The first group was strictly kept in the dark. The second group was exposed to a 1-Photon irradiation (500 nm, 16.7 min, 10.0 mW cm^−2, and 10 J cm^−2) using a LED light source and the third group was exposed to a 2-Photon irradiation (800 nm, 10 J cm^−2 with a section interval of 5 μm) using a LSM 880 (Carl Zeiss, Germany) laser scanning confocal microscope equipped with a Coherent Chameleon 2-Photon laser. After the irradiation, all groups were incubated additional 48 h. The ATP concertation was measured using a CellTiter-Glo 3D Cell Viability kit (Promega) by measuring the generated chemiluminescence with an infinite M200 PRO (Tecan) plate reader.

Setting [3] is: read-out: IC50 540 nm (40 min, 9.5 J cm-2), RPE-1, 540 nm.
[4] abbreviates: read-out: IC50 dark, RPE-1, dark.
[5] abbreviates: 2P 800 nm, section interval 5 μm, read-out: IC50 2P irradiation (800 nm, 10 J cm-2).
The mark [6] stands for this setting: 1P 500 nm, read-out: IC50 1P irradiation (500 nm, 10 J cm-2).

With `C(=C\c1ccnc(-c2cc(/C=C/c3ccccc3)ccn2)c1)/c1ccccc1.C(=C\c1ccnc(-c2cc(/C=C/c3ccccc3)ccn2)c1)/c1ccccc1.C(=C\c1ccnc(-c2cc(/C=C/c3ccccc3)ccn2)c1)/c1ccccc1.F[P-](F)(F)(F)(F)F.F[P-](F)(F)(F)(F)F.[Ru+2]` [compound 1], in assay [1], the “PI (480 nm)” value is reported as above 3.2 and the “PI (540 nm)” value is listed as above 3.2. The IC50 in assay [1] (setting [3]) turned out to be 31.7 µM. For the same molecule, the IC50 in assay [1] (setting [4]) is above 100 µM. For the same molecule, in assay [2], the “Singlet oxygen quantum yield, Indirect 450 nm CH3CN” value is given as 66%; the “Singlet oxygen quantum yield, Indirect 450 nm PBS” value stood at 5%; the “Singlet oxygen quantum yield, Indirect 540 nm CH3CN” value was determined as 61%; the “Singlet oxygen quantum yield, Indirect 540 nm PBS” value is reported as 3%.
On to `COc1ccc(/C=C/c2ccnc(-c3cc(/C=C/c4ccc(OC)cc4)ccn3)c2)cc1.COc1ccc(/C=C/c2ccnc(-c3cc(/C=C/c4ccc(OC)cc4)ccn3)c2)cc1.COc1ccc(/C=C/c2ccnc(-c3cc(/C=C/c4ccc(OC)cc4)ccn3)c2)cc1.F[P-](F)(F)(F)(F)F.F[P-](F)(F)(F)(F)F.[Ru+2]` [compound 3, [Ru((E,E′)-4,4′-Bis[p-methoxystyryl]-2,2′-bipyridine)3][PF6]2], for which, in the assay on HeLa MCTS (setting [5]), the IC50 was 87.3 ± 6.8 µM. For the same molecule, the “PI (2P irradiation)” value in the assay with HeLa MCTS was above 1.1. In addition, in assay [1], the “PI (480 nm)” value is given as above 1.9 and the “PI (540 nm)” value is reported as above 2.2. Further, the IC50 in assay [1] (setting [3]) was 44.9 µM. Also, the IC50 in assay [1] (setting [4]) is above 100 µM. Moreover, in assay [2], the “Singlet oxygen quantum yield, Indirect 450 nm CH3CN” value is 48%; the “Singlet oxygen quantum yield, Indirect 450 nm PBS” value was found to be 6%; the “Singlet oxygen quantum yield, Indirect 540 nm CH3CN” value worked out at 49%; the “Singlet oxygen quantum yield, Indirect 540 nm PBS” value stood at 5%.
As for `CN(C)c1ccc(/C=C/c2ccnc(-c3cc(/C=C/c4ccc(N(C)C)cc4)ccn3)c2)cc1.CN(C)c1ccc(/C=C/c2ccnc(-c3cc(/C=C/c4ccc(N(C)C)cc4)ccn3)c2)cc1.F[P-](F)(F)(F)(F)F.F[P-](F)(F)(F)(F)F.[Ru+2].c1ccc(-c2ccccn2)nc1` [compound 4, [Ru(2,2′-bipyridine)((E,E′)-4,4′-Bis[p-(N,N-dimethylamino)styryl]-2,2′-bipyridine)2][PF6]2], in the assay with HeLa MCTS (setting [6]), the IC50 came to 78.3 ± 5.1 µM. Moreover, the IC50 with HeLa MCTS (setting [5]) was determined as 63 ± 4.2 µM. Further, in the assay on HeLa MCTS, the “PI (1P irradiation)” value is above 1.3 and the “PI (2P irradiation)” value was above 1.6. For the same molecule, in assay [1], the “PI (480 nm)” value is reported as above 9.2 and the “PI (540 nm)” value is given as above 6.8. In addition, the IC50 in assay [1] (setting [3]) is 14.7 µM. For the same molecule, the concentration for half-maximal inhibition (IC50) in assay [1] (setting [4]) is above 100 µM. Further, in assay [2], the “Singlet oxygen quantum yield, Indirect 450 nm CH3CN” value turned out to be 40%; the “Singlet oxygen quantum yield, Indirect 450 nm PBS” value is 2%; the “Singlet oxygen quantum yield, Indirect 540 nm CH3CN” value is recorded as 37%; the “Singlet oxygen quantum yield, Indirect 540 nm PBS” value was found to be 3%.
As for `COc1ccc(/C=C/c2ccnc(-c3cc(/C=C/c4ccc(OC)cc4)ccn3)c2)cc1.COc1ccc(/C=C/c2ccnc(-c3cc(/C=C/c4ccc(OC)cc4)ccn3)c2)cc1.F[P-](F)(F)(F)(F)F.F[P-](F)(F)(F)(F)F.[Ru+2].c1ccc(-c2ccccn2)nc1` [compound 5, [Ru(2,2′-bipyridine)((E,E′)-4,4′-Bis[p-methoxystyryl]-2,2′-bipyridine)2][PF6]2], the IC50 with HeLa MCTS (setting [6]) was 19.3 ± 2.7 µM. In the assay with HeLa MCTS (setting [5]), the IC50 was determined as 13.4 ± 3.9 µM. Besides, in the assay on HeLa MCTS, the “PI (1P irradiation)” value is above 5.2 and the “PI (2P irradiation)” value is given as above 7.5. For the same molecule, in assay [1], the “PI (480 nm)” value is above 9.8 and the “PI (540 nm)” value is on record as above 7.9. The IC50 in assay [1] (setting [3]) was found to be 12.7 µM. In addition, the concentration for half-maximal inhibition (IC50) in assay [1] (setting [4]) is above 100 µM. In assay [2], the “Singlet oxygen quantum yield, Indirect 450 nm CH3CN” value was 51%; the “Singlet oxygen quantum yield, Indirect 450 nm PBS” value was 8%; the “Singlet oxygen quantum yield, Indirect 540 nm CH3CN” value was determined as 46%; the “Singlet oxygen quantum yield, Indirect 540 nm PBS” value was determined as 6%.
On to `CN(C)c1ccc(/C=C/c2ccnc(-c3cc(/C=C/c4ccc(N(C)C)cc4)ccn3)c2)cc1.F[P-](F)(F)(F)(F)F.F[P-](F)(F)(F)(F)F.[Ru+2].c1ccc(-c2ccccn2)nc1.c1ccc(-c2ccccn2)nc1` [compound 6, [Ru(2,2′-bipyridine)2((E,E′)-4,4′-Bis[p-(N,N-dimethylamino)styryl]-2,2′-bipyridine)][PF6]2], for which the IC50 in the assay on HeLa MCTS (setting [6]) amounted to 33.8 ± 3.4 µM. Moreover, the IC50 with HeLa MCTS (setting [5]) came to 26.5 ± 2.9 µM. In the assay on HeLa MCTS, the “PI (1P irradiation)” value is above 8.9 and the “PI (2P irradiation)” value is on record as above 11.3. Further, the IC50 in the assay with HeLa MCTS (dark, read-out: IC50 dark) was above 300 µM. Besides, in assay [1], the “PI (480 nm)” value is listed as above 13.7 and the “PI (540 nm)” value was above 12.3. Moreover, the IC50 in assay [1] (setting [3]) came to 8.1 µM. Further, the IC50 in assay [1] (setting [4]) was above 100 µM. In assay [2], the “Singlet oxygen quantum yield, Indirect 450 nm CH3CN” value turned out to be 53%; the “Singlet oxygen quantum yield, Indirect 450 nm PBS” value is on record as 2%; the “Singlet oxygen quantum yield, Indirect 540 nm CH3CN” value is 38%; the “Singlet oxygen quantum yield, Indirect 540 nm PBS” value stood at 2%.

A word on the IC50: it is the concentration that gives 50% inhibition.
